Reference: US20020026053A1, “Novel 3-(substituted) -2- indolinones compounds and use thereof as inhibitors of protein kinase activity” (priority 1997, published 2002)

tested on: PDGF-R; experiment: PDGF-R Assay (cellular ELISA, U1242 cells); assay type: cell-based; set-up: concentration or dose not given beside the values; details: protocol P.119
Method in brief: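 U1242 cells seeded in 0.5% serum, serum-starved, then exposed to compound for 2 hr at 37°C before 5–10 min ligand stimulation and lysis in HNTG. Lysate captured on receptor-antibody-coated plates; phosphotyrosine detected with polyclonal anti-pTyr, goat anti-rabbit IgG and ABTS/H2O2, A410 (ref 630 nm), versus untreated cells.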

Row | Compound | PDGF Kinase % Inhibition (P.119)
1 | O=C1Nc2ccc(S(=O)(=O)Nc3ccc(C(F)(F)F)cc3)cc2C1=Cc1ccc2ccccc2c1 [10737/E08] | 35.6%
2 | Cc1c(Br)cc(Br)c2c1C(=Cc1cccc(F)c1)C(=O)N2 [10736/H07] | −21.9%
3 | Cc1c(Br)ccc2c1C(=Cc1cc(F)ccc1F)C(=O)N2 [10737/C04] | 25.7%
4 | Cc1ccc(C)c(C=C2C(=O)Nc3ccc(S(=O)(=O)N4CCOCC4)cc32)c1 [10737/F07] | 12.9%
5 | CNS(=O)(=O)c1ccc2c(c1)C(=Cc1cc(C)ccc1C)C(=O)N2 [10737/D07] | −5.0%
6 | CNS(=O)(=O)c1ccc2c(c1)C(=Cc1cccc(F)c1F)C(=O)N2 [10737/D05] | 2.2%
7 | O=C1Nc2c(Br)cc(Br)cc2C1=Cc1ccc2ccccc2c1 [10737/A08] | 1.0%
8 | O=C1Nc2ccc(CCCl)cc2C1=Cc1ccc(Oc2ccccc2)cc1 [10737/G09] | 8.2%
9 | Cc1ccc(C)c(C=C2C(=O)Nc3ccc(I)cc32)c1 [10737/B07] | 18.9%
10 | Cc1c(Br)cc(Br)c2c1C(=Cc1cccc(F)c1F)C(=O)N2 [10737/H05] | −6.2%
11 | Cc1c(Br)ccc2c1C(=Cc1cccc(Oc3ccc(C(C)(C)C)cc3)c1)C(=O)N2 [10737/C10] | 6.6%
12 | CNS(=O)(=O)c1ccc2c(c1)C(=Cc1cccc(Oc3ccc(C(C)(C)C)cc3)c1)C(=O)N2 [10737/D10] | 7.0%
13 | CCOc1ccc(C=C2C(=O)Nc3ccc(I)cc32)cc1 [10737/B02] | −28.9%
14 | Cc1c(Br)cc(Br)c2c1C(=Cc1ccccc1F)C(=O)N2 [10736/H08] | −17.9%
15 | CNS(=O)(=O)c1ccc2c(c1)C(=Cc1ccc(OC)c(F)c1)C(=O)N2 [10737/D06] | −10.2%
16 | CNS(=O)(=O)c1ccc2c(c1)C(=Cc1ccc3ccccc3c1)C(=O)N2 [10737/D08] | 3.0%
17 | O=C1Nc2ccc(CCCl)cc2C1=Cc1cccc(F)c1F [10737/G05] | 16.1%
18 | CCOc1ccc(C=C2C(=O)Nc3ccc(S(=O)(=O)NC)cc32)cc1 [10737/D02] | −4.2%
19 | Cc1ccc(C)c(C=C2C(=O)Nc3ccc(S(=O)(=O)Nc4ccc(C(F)(F)F)cc4)cc32)c1 [10737/E07] | 28.1%
20 | CCOc1ccc(C=C2C(=O)Nc3c(Br)cc(Br)c(C)c32)cc1 [10737/H02] | −18.1%
21 | O=C1Nc2ccc(S(=O)(=O)N3CCOCC3)cc2C1=Cc1cccc(Oc2cccc(C(F)(F)F)c2)c1 [10737/F11] | 16.5%
22 | CNS(=O)(=O)c1ccc2c(c1)C(=Cc1cc(F)ccc1F)C(=O)N2 [10737/D04] | 9.4%
23 | CC(C)(C)c1ccc(Oc2cccc(C=C3C(=O)Nc4ccc(S(=O)(=O)N5CCOCC5)cc43)c2)cc1 [10737/F10] | 11.0%
24 | Cc1ccc(C=C2C(=O)Nc3ccc(I)cc32)c(C)c1 [10737/B03] | 29.7%
25 | Cc1ccc(C=C2C(=O)Nc3c(Br)cc(Br)cc32)c(C)c1 [10737/A03] | 38.8%
26 | COc1ccc(C=C2C(=O)Nc3ccc(I)cc32)cc1F [10737/B06] | 20.1%

Row | Compound | PDGF Kinase % Inhibition (P.119)
27 | Cc1c(Br)cc(Br)c2c1C(=Cc1ccccc1Cl)C(=O)N2 [10736/H11] | −12.7%
28 | Cc1ccc(C=C2C(=O)Nc3ccc(Br)c(C)c32)c(C)c1 [10737/C03] | 7.0%
29 | Cc1c(Br)ccc2c1C(=Cc1ccc(Oc3ccccc3)cc1)C(=O)N2 [10737/C09] | −1.8%
30 | CC(C)(C)c1ccc(Oc2cccc(C=C3C(=O)Nc4c(Br)cc(Br)cc43)c2)cc1 [10737/A10] | −3.8%
31 | O=C1Nc2c(Br)cc(Br)cc2C1=Cc1cccc(Oc2cccc(C(F)(F)F)c2)c1 [10737/A11] | 28.1%
32 | O=C1Nc2ccc(CCCl)cc2C1=Cc1cccc(Oc2cccc(C(F)(F)F)c2)c1 [10737/G11] | 5.0%
33 | CNS(=O)(=O)c1ccc2c(c1)C(=Cc1cccc(Oc3cccc(C(F)(F)F)c3)c1)C(=O)N2 [10737/D11] | 5.4%
34 | O=C1Nc2ccc(S(=O)(=O)N3CCOCC3)cc2C1=Cc1cc(F)ccc1F [10737/F04] | 3.8%
35 | COc1ccc(C=C2C(=O)Nc3c(Br)cc(Br)c(C)c32)cc1F [10737/H06] | −1.8%
36 | CNS(=O)(=O)c1ccc2c(c1)C(=Cc1ccc(C)cc1C)C(=O)N2 [10737/D03] | −5.8%
37 | Cc1ccc(C)c(C=C2C(=O)Nc3ccc(CCCl)cc32)c1 [10737/G07] | 24.1%
38 | Cc1ccc(C=C2C(=O)Nc3ccc(S(=O)(=O)Nc4ccc(C(F)(F)F)cc4)cc32)c(C)c1 [10737/E03] | 39.2%
39 | O=C1Nc2ccc(S(=O)(=O)Nc3ccc(C(F)(F)F)cc3)cc2C1=Cc1cc(F)ccc1F [10737/E04] | 29.7%
40 | COc1ccc(C=C2C(=O)Nc3ccc(S(=O)(=O)N4CCOCC4)cc32)cc1F [10737/F06] | 11.3%
41 | CC(C)(C)c1ccc(Oc2cccc(C=C3C(=O)Nc4ccc(CCCl)cc43)c2)cc1 [10737/G10] | −0.2%
42 | O=C1Nc2c(Br)cc(Br)cc2C1=Cc1ccc(Oc2ccccc2)cc1 [10737/A09] | 18.9%
43 | COc1cccc(C=C2C(=O)Nc3c(Br)cc(Br)c(C)c32)c1 [10736/H10] | −21.0%
44 | COc1ccc(C=C2C(=O)Nc3ccc(CCCl)cc32)cc1F [10737/G06] | −10.2%
45 | CC(C)(C)c1ccc(Oc2cccc(C=C3C(=O)Nc4ccc(S(=O)(=O)Nc5ccc(C(F)(F)F)cc5)cc43)c2)cc1 [10737/E10] | 30.9%
46 | Cc1ccc(C=C2C(=O)Nc3ccc(S(=O)(=O)N4CCOCC4)cc32)c(C)c1 [10737/F03] | 7.8%
47 | O=C1Nc2ccc(I)cc2C1=Cc1cc(F)ccc1F [10737/B04] | 12.5%
48 | O=C1Nc2ccc(CCCl)cc2C1=Cc1cc(F)ccc1F [10737/G04] | 12.1%
49 | Cc1c(Br)ccc2c1C(=Cc1ccc3ccccc3c1)C(=O)N2 [10737/C08] | 14.5%
50 | O=C1Nc2ccc(S(=O)(=O)Nc3ccc(C(F)(F)F)cc3)cc2C1=Cc1cccc(F)c1F [10737/E05] | 33.3%
51 | Cc1ccc(C=C2C(=O)Nc3c(Br)cc(Br)c(C)c32)c(C)c1 [10737/H03] | −21.3%
52 | Cc1c(Br)ccc2c1C(=Cc1cccc(Oc3cccc(C(F)(F)F)c3)c1)C(=O)N2 [10737/C11] | 32.5%

Row | Compound | PDGF Kinase % Inhibition (P.119)
53 | CNS(=O)(=O)c1ccc2c(c1)C(=Cc1ccc(Oc3ccccc3)cc1)C(=O)N2 [10737/D09] | 1.0%
54 | CCOc1ccc(C=C2C(=O)Nc3ccc(Br)c(C)c32)cc1 [10737/C02] | −2.2%
55 | O=C1Nc2ccc(S(=O)(=O)Nc3ccc(C(F)(F)F)cc3)cc2C1=Cc1ccc(Oc2ccccc2)cc1 [10737/E09] | 25.7%
56 | CCOc1ccc(C=C2C(=O)Nc3ccc(CCCl)cc32)cc1 [10737/G02] | −5.8%
57 | CCOc1ccc(C=C2C(=O)Nc3ccc(S(=O)(=O)N4CCOCC4)cc32)cc1 [10737/F02] | 9.0%
58 | COc1ccc(C=C2C(=O)Nc3ccc(S(=O)(=O)Nc4ccc(C(F)(F)F)cc4)cc32)cc1F [10737/E06] | 26.5%
59 | Cc1ccc(C)c(C=C2C(=O)Nc3ccc(Br)c(C)c32)c1 [10737/C07] | 8.6%
60 | COc1ccc(C=C2C(=O)Nc3ccc(Br)c(C)c32)cc1F [10737/C06] | 7.8%
61 | O=C1Nc2c(Br)cc(Br)cc2C1=Cc1cc(F)ccc1F [10737/A04] | 23.7%
62 | O=C1Nc2ccc(CCCl)cc2C1=Cc1ccc2ccccc2c1 [10737/G08] | 13.7%
63 | O=C1Nc2ccc(I)cc2C1=Cc1ccc2ccccc2c1 [10737/B08] | −0.6%
64 | O=C1Nc2ccc(S(=O)(=O)N3CCOCC3)cc2C1=Cc1cccc(F)c1F [10737/F05] | 1.0%
65 | O=C1Nc2ccc(I)cc2C1=Cc1cccc(F)c1F [10737/B05] | 19.7%
66 | CCc1ccc(C=C2C(=O)Nc3c(Br)cc(Br)c(C)c32)cc1 [10736/H09] | −14.8%
67 | COc1ccc(C=C2C(=O)Nc3c(Br)cc(Br)cc32)cc1F [10737/A06] | 15.7%
68 | O=C1Nc2c(Br)cc(Br)cc2C1=Cc1cccc(F)c1F [10737/A05] | 21.7%
69 | O=C1Nc2ccc(S(=O)(=O)N3CCOCC3)cc2C1=Cc1ccc2ccccc2c1 [10737/F08] | 9.8%
70 | CC(C)(C)c1ccc(Oc2cccc(C=C3C(=O)Nc4ccc(I)cc43)c2)cc1 [10737/B10] | −10.2%
71 | O=C1Nc2ccc(S(=O)(=O)N3CCOCC3)cc2C1=Cc1ccc(Oc2ccccc2)cc1 [10737/F09] | 9.8%
72 | Cc1c(Br)ccc2c1C(=Cc1cccc(F)c1F)C(=O)N2 [10737/C05] | 12.5%
73 | O=C1Nc2ccc(I)cc2C1=Cc1cccc(Oc2cccc(C(F)(F)F)c2)c1 [10737/B11] | −10.2%
74 | CCOc1ccc(C=C2C(=O)Nc3c(Br)cc(Br)cc32)cc1 [10737/A02] | 6.6%
75 | CCOc1ccc(C=C2C(=O)Nc3ccc(S(=O)(=O)Nc4ccc(C(F)(F)F)cc4)cc32)cc1 [10737/E02] | 12.9%
76 | Cc1ccc(C)c(C=C2C(=O)Nc3c(Br)cc(Br)cc32)c1 [10737/A07] | 7.0%
77 | Cc1ccc(C=C2C(=O)Nc3ccc(CCCl)cc32)c(C)c1 [10737/G03] | 21.7%
78 | Cc1c(Br)cc(Br)c2c1C(=Cc1cc(F)ccc1F)C(=O)N2 [10737/H04] | −21.3%
